# PMC9413440, “An Iterative Approach Guides Discovery of the FabI Inhibitor Fabimycin, a Late-Stage Antibiotic Candidate with In Vivo Efficacy against Drug-Resistant Gram-Negative Infections” (ACS Central Science, 2022)
# Where two headings read alike, the source gives them in different places.
# How the values were obtained:
# [1] = Pharmacokinetic assessment in neutropenic A. baumannii-infected mice; assay type: in vivo, mouse; conditions: for Cmax / AUC(0-t) / clearance / half-life: single dose; for TimeHigh: time above the MIC of the infective strain (2 µg/mL)
# Description: Pharmacokinetic assessment
# The protocol to assess fabimycin’s pharmacokinetic properties in A. baumanii-infected mice (strain: AR-0088) was approved by the IACUC at Pharmacology Discovery Services, Taiwan, Ltd. (protocol mumber: PK001-09212018). In this study, neutropenic female BALB/c mice 7-8 weeks in age from BioLASCO Taiwan (AAALAC-certified Charles River Licensee) weighing 18 ± 2 grams were used.10 All animals were specific pathogen free. Mice were rendered neutropenic via cyclophosphamide (CP) administration by two intraperitoneal (IP) injections following a standard method for mouse thigh infection models.11 The first CP dose, 150 mg/kg, was administered at four days before infection (Day –4); and the second, 100 mg/kg, at 24 h before infection (Day –1), prior to infection on Day 0.
# To inoculate the mice, A. baumannii cultures were first generated by seeding brain heart infusion (BHI, 20 mL) with an aliquot (0.2 mL) of a single-used glycerol stock of A. baumannii AR-0088 stored at -80 °C and incubating at 35-37 °C with shaking (250 rpm) for 6 hours. An aliquot of this culture (1.0 mL) was used to seed fresh BHI media (99 mL) and this shaken (250 rpm) at 35-37 °C for 16 hours. Bacterial cells were harvested by centrifuging 20 mL of this outgrowth culture (3,500 x g) for 15 minutes and re-suspending in fresh cold phosphate buffered saline (PBS, 10 mL). The optical density at 620 nm was measured and used to guide dilutions. PBS suspensions were stored on ice for no more than 1 hour prior to animal inoculation. The bacterial count in the challenge organism suspension was enumerated by dilution plating on to nutrient gar plates followed by 20-24 hour incubation. The target inoculum is 1.0 * 10^5 CFU/mouse for the strain […]
# Fabimycin was IV administered once followed by terminal blood sampling at 8 time points with cardiac puncture (5, 15, 30, 45, 60, 120, 240, and 480 minutes). Terminal blood collection from cardiac puncture was conducted under CO2 euthanasia. Blood, 0.3-0.4 mL, was drawn into tubes coated with K2EDTA, mixed gently and kept on ice and centrifuged at 12,000 × g for 5 minutes at 4°C within 1 hour of collection. The plasma was harvested and stored at -80 °C until further processing. Thigh tissues were aseptically harvested from the left thigh of the infected animals, weighed, and homogenized in sterile PBS (3 mL, pH 7.4) with a Polytron homogenizer. The thigh homogenate was collected and stored at -80 °C until further processing.
# For LC-MS/MS sample processing a 20 µL aliquot of each plasma and thigh sample was transferred to 96 well plate. A 300 µL aliquot of 0.01 ng/µL internal standard (IS), oxybutynin, in MeOH/FA=95/5 was added to each tube except for the double blank and carryover controls. A 300 μL aliquot of MeOH/FA=95/5, without oxybutynin, was added to the double blank and carryover assay wells. The equilibrated mixture was vortexed for 1 min and then centrifuged at 4,000 rpm for 5 min at 20 °C to precipitate protein. After centrifugation, 50 µL of the supernatant was transferred to a new well of the 96 well plate and 500 μL H2O/FA=100/0.2 added for LC-MS/MS analysis. Plasma and thigh samples from treatment groups and the calibration curve samples were processed on the same test occasion using the same procedure.
# The calibration curve samples were generated by spiking aliquots of drug-free plasma or thigh homogenates with the test article dilution. The quality control (QC) samples, QH (high), QM (medium) and QL (low) were each assayed in duplicate. The PK parameters for the IV doses were obtained from the non-compartmental analysis (NCA) of the plasma and thigh homogenate data using WinNonlin (Phoenix® Build 8.3.1.5014).
# LC-MS/MS runs were conducted with a SCIEX Triple Quad™ 5500+ mass sp ectrometer. Method development was conducted to determine appropriate conditions for LC-MS/MS analysis of fabimycin. A titration of a stock solution was performed to correlate peak areas and the corresponding concentration. […]
# [2] = tested on: Pseudomonas aeruginosa; test: MIC, Pseudomonas aeruginosa strains; assay type: cell-based
# Experimental: (§1) II. Materials and Methods for Biological Experiments
# (§2) S. aureus ATCC 29213 and E. coli MG1655 were obtained from the American Type Culture Collection (ATCC). E. coli BW25113 and E. coli JW5503 were obtained from the Keio Collection. AR-bank strains were obtained from the Centers for Disease Control and Prevention and FDA Antibiotic Resistance Isolate Bank.
# (§3) Antimicrobial susceptibility tests
# (§4) Susceptibility testing was performed in biological triplicate, unless noted otherwise, using the micro-dilution broth method as outlined by the Clinical and Laboratory Standards Institute. Bacteria were cultured with cation-adjusted Mueller Hinton broth (Sigma Aldrich, catalogue number: 90922). […]
# (§5) Error bars represent the standard error of the mean of three biological replicates. All compounds evaluated in biological assays were ≥95% pure.
# [3] = tested on: A. baumannii AR-0088; test: MIC against infective strain of PK/thigh models; assay type: cell-based; conditions: Acinetobacter baumannii, AR0088; drug-resistant A. baumannii, infective strain of the PK study (AR-0088)
# Experimental: as §1, §2, §3, §4, §5
# [4] = tested on: Bacteroides cellulosilyticus KLE 2342; test: MIC, commensal bacteria; assay type: cell-based; conditions: KLE2342
# Experimental: as §1, §2, §3, §4
# (§6) NH3: m/z 391.2 → 171.0. Fabimycin: m/z 405.3 → 145.3. Power analysis was not used to determine the number of replicates. Error bars represent the standard error of the mean of three biological replicates. All compounds evaluated in biological assays were ≥95% pure.
# [5] = tested on: Bacteroides vulgatus KLE 2303; test: MIC, commensal bacteria; assay type: cell-based; conditions: Phocaeicola vulgatus, KLE2303
# Experimental: as §1, §2, §3, §4, §6
# [6] = tested on: Lactobacillus reuteri ATCC 23272; test: MIC, commensal bacteria; assay type: cell-based; conditions: Limosilactobacillus reuteri, ATCC23272
# Experimental: as §1, §2, §3, §4, §6
# [7] = tested on: Faecalibacterium prausnitzii ATCC 27768; test: MIC, commensal bacteria; assay type: cell-based; conditions: ATCC27768
# Experimental: as §1, §2, §3, §4, §6
# [8] = tested on: A. baumannii 19606; test: MIC, broth microdilution (CLSI); assay type: cell-based; conditions: Acinetobacter baumannii
# In short: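 Values come from susceptibility testing done in biological triplicate, unless noted, following the Clinical and Laboratory Standards Institute broth microdilution protocol with cation-adjusted Mueller Hinton medium.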
# [9] = female, BALB/c, mouse, plasma, 75 mg/kg, IV
# [10] = female, BALB/c, mouse, plasma, 100 mg/kg, IV
# [11] = female, BALB/c, mouse, thigh, 75 mg/kg, IV
# [12] = female, BALB/c, mouse, thigh, 100 mg/kg, IV
compound,measurement,setting,value
Cc1c(CN(C)C(=O)/C=C/c2cnc3c(c2)CC[C@H](N)C(=O)N3)oc2ccccc12 [fabimycin],Cmax,"[1]; female, BALB/c, mouse, plasma, iv, 75 mg/kg, plasma, 75 mg/kg, read-out: Cmax",34600 ng/mL
same,Cmax,"[1]; female, BALB/c, mouse, plasma, iv, 100 mg/kg, plasma, 100 mg/kg, read-out: Cmax",47300 ng/mL
same,Cmax,"[1]; female, BALB/c, mouse, thigh, iv, 75 mg/kg, thigh, 75 mg/kg, read-out: Cmax",33000 ng/g
same,Cmax,"[1]; female, BALB/c, mouse, thigh, iv, 100 mg/kg, thigh, 100 mg/kg, read-out: Cmax",60200 ng/g
same,AUC(0-t),[1]; [9],45400 ng·h/mL
same,clearance,[1]; [9],26.9 mL/min/kg
same,half-life,[1]; [9],1.4 h
same,AUC(0-t),[1]; [10],69800 ng·h/mL
same,clearance,[1]; [10],23.5 mL/min/kg
same,half-life,[1]; [10],1.4 h
same,AUC(0-t),[1]; [11],65200 ng·h/mL
same,clearance,[1]; [11],18.9 mL/min/kg
same,half-life,[1]; [11],1.39 h
same,AUC(0-t),[1]; [12],112000 ng·h/mL
same,clearance,[1]; [12],14.7 mL/min/kg
same,half-life,[1]; [12],1.24 h
same,TimeHigh,"[1]; plasma, 75 mg/kg, IV",5.70 h
same,Cmax,"[1]; plasma, 100 mg/kg, IV",47000 ng/mL
same,TimeHigh,"[1]; plasma, 100 mg/kg, IV",6.67 h
same,TimeHigh,"[1]; thigh, 75 mg/kg, IV",over 6 h
same,TimeHigh,"[1]; thigh, 75 mg/kg, IV, listed as Fabimycin",6.22 h
same,TimeHigh,"[1]; thigh, 100 mg/kg, IV",7.19 h
same,MIC,[2]; P. aeruginosa AR-0229,>128 µg/mL
same,MIC,[2]; P. aeruginosa AR-0230,>128 µg/mL
same,MIC,[2]; P. aeruginosa AR-0231,>128 µg/mL
same,MIC,[2]; P. aeruginosa AR-0233,>128 µg/mL
same,MIC,[2]; P. aeruginosa AR-0234,>128 µg/mL
same,MIC,[2]; P. aeruginosa AR-0235,>128 µg/mL
same,MIC,[2]; P. aeruginosa AR-0609,>128 µg/mL
same,MIC,[2]; P. aeruginosa AR-0610,>128 µg/mL
same,MIC,"[2]; Pseudomonas aeruginosa, ATCC27853, P. aeruginosa ATCC 27853, read-out: MIC",> 128 µg/mL
same,MIC,"[2]; Pseudomonas aeruginosa, P. aeruginosa AR-0232, read-out: MIC",> 128 µg/mL
same,MIC,[3],2 µg/mL
same,MIC,[4],> 128 µg/mL
same,MIC,[5],> 128 µg/mL
same,MIC,[6],64 µg/mL
same,MIC,[7],> 128 µg/mL
same,MIC,[8],2 µg/mL
